According to patent US20110281896A1, “OPTICALLY PURE QUINAZOLINE COMPOUNDS” (Jiangsu Hansoh Pharmaceutical Co. Ltd, priority 2009, published 2011):

Columns and labels:
[1] = system: MCF-7; experiment: Antitumor activity in vitro, SRB cell proliferation inhibition; assay type: cell-based; conditions: 72 h incubation, Logit method
Method: (§1) Evaluation of Antitumor Activity In Vitro
(§2) Cell Strains: A431; MCF-7
(§3) Experiment Design: Cells were incubated with different concentrations of compounds for 72 hours. The inhibition of cell proliferation by the compounds was evaluated by SRB, followed by calculation of the inhibition rate. Then, value of IC50 was calculated by using-Logit method base on the inhibition rate and used to compare in vitro antitumor activity of the compounds.
(§4) Method for Calculating the Inhibition Rate: Inhibition rate (%)=(OD value of control group−OD value of drug group)/OD value of control group×100%

[2] = system: A431; experiment: as above; assay type: cell-based; conditions: 72 h incubation, Logit method
Method: as §1, §2, §3, §4

[3] = Homo sapiens, MCF7, MCF-7 cells
[4] = Homo sapiens, A-431, A431 cells

| Structure (SMILES) | IC50 ([1]; MCF-7 cells) [nM] | IC50 ([2]; A431 cells) [nM] | IC50 [1, 3] [nM] | IC50 [2, 4] [nM] |
| --- | --- | --- | --- | --- |
| CCCN(CCC)[C@@H](CS(C)(=O)=O)c1cnc(-c2ccc3ncnc(Nc4ccc(OCc5cccc(F)c5)c(Cl)c4)c3c2)s1 [Compound 125] | 7760 | 523 | – | – |
| CCN(C)[C@@H](CS(C)(=O)=O)c1cnc(-c2ccc3ncnc(Nc4ccc(OCc5cccc(F)c5)c(Cl)c4)c3c2)s1 [Compound 126] | 7760 | 488 | – | – |
| C=CCN[C@@H](CS(C)(=O)=O)c1cnc(-c2ccc3ncnc(Nc4ccc(OCc5cccc(F)c5)c(Cl)c4)c3c2)s1 [Compound 127] | 5890 | 521 | – | – |
| C#CCN[C@@H](CS(C)(=O)=O)c1cnc(-c2ccc3ncnc(Nc4ccc(OCc5cccc(F)c5)c(Cl)c4)c3c2)s1 [Compound 128] | 6340 | 672 | – | – |
| CON[C@@H](CS(C)(=O)=O)c1cnc(-c2ccc3ncnc(Nc4ccc(OCc5cccc(F)c5)c(Cl)c4)c3c2)s1 [Compound 129] | 9710 | 667 | – | – |
| CON(C)[C@@H](CS(C)(=O)=O)c1cnc(-c2ccc3ncnc(Nc4ccc(OCc5cccc(F)c5)c(Cl)c4)c3c2)s1 [Compound 130] | 8590 | 536 | – | – |
| CS(=O)(=O)C[C@@H](N)c1cnc(-c2ccc3ncnc(Nc4ccc(OCc5cccc(F)c5)c(Cl)c4)c3c2)s1 [Compound 131, (R)—N-(4-(3-fluorobenzyl-oxy)-3-chlorophenyl)-6-(5-(1-(amino)-2-(methylsulfonyl)ethyl)thiazole-2-yl)quinazolin-4-amine] | – | – | 8520 | 582 |
| CN[C@H](CS(C)(=O)=O)c1cnc(-c2ccc3ncnc(Nc4ccc(OCc5cccc(F)c5)c(Cl)c4)c3c2)s1 [Compound 132] | 9910 | 389 | – | – |
| CCN[C@H](CS(C)(=O)=O)c1cnc(-c2ccc3ncnc(Nc4ccc(OCc5cccc(F)c5)c(Cl)c4)c3c2)s1 [Compound 133] | 7890 | 554 | – | – |
| CCCN[C@H](CS(C)(=O)=O)c1cnc(-c2ccc3ncnc(Nc4ccc(OCc5cccc(F)c5)c(Cl)c4)c3c2)s1 [Compound 134] | 6510 | 580 | – | – |
| CN(C)[C@H](CS(C)(=O)=O)c1cnc(-c2ccc3ncnc(Nc4ccc(OCc5cccc(F)c5)c(Cl)c4)c3c2)s1 [Compound 136] | 5430 | 449 | – | – |
| CCN(CC)[C@H](CS(C)(=O)=O)c1cnc(-c2ccc3ncnc(Nc4ccc(OCc5cccc(F)c5)c(Cl)c4)c3c2)s1 [Compound 137] | 5470 | 589 | – | – |
| CCCN(CCC)[C@H](CS(C)(=O)=O)c1cnc(-c2ccc3ncnc(Nc4ccc(OCc5cccc(F)c5)c(Cl)c4)c3c2)s1 [Compound 138] | 4600 | 426 | – | – |
| CCN(C)[C@H](CS(C)(=O)=O)c1cnc(-c2ccc3ncnc(Nc4ccc(OCc5cccc(F)c5)c(Cl)c4)c3c2)s1 [Compound 139] | 4130 | 452 | – | – |
| C=CCN[C@H](CS(C)(=O)=O)c1cnc(-c2ccc3ncnc(Nc4ccc(OCc5cccc(F)c5)c(Cl)c4)c3c2)s1 [Compound 140] | 4020 | 648 | – | – |
| C#CCN[C@H](CS(C)(=O)=O)c1cnc(-c2ccc3ncnc(Nc4ccc(OCc5cccc(F)c5)c(Cl)c4)c3c2)s1 [Compound 141] | 7620 | 486 | – | – |
| CON[C@H](CS(C)(=O)=O)c1cnc(-c2ccc3ncnc(Nc4ccc(OCc5cccc(F)c5)c(Cl)c4)c3c2)s1 [Compound 142] | 7860 | 500 | – | – |
| CON(C)[C@H](CS(C)(=O)=O)c1cnc(-c2ccc3ncnc(Nc4ccc(OCc5cccc(F)c5)c(Cl)c4)c3c2)s1 [Compound 143] | 5090 | 788 | – | – |
| CS(=O)(=O)C[C@@H](N)c1ccc(-c2ccc3ncnc(Nc4ccc5c(cnn5Cc5cccc(F)c5)c4)c3c2)o1 [Compound 144, (S)—N-(1-(3-fluorobenzyl)-1H-indazol-5-yl)-6-(5-(1-(amino)-2-(methylsulfonyl)ethyl)furan-2-yl)quinazolin-4-amine] | – | – | 4970 | 711 |
| CN[C@H](CS(C)(=O)=O)c1ccc(-c2ccc3ncnc(Nc4ccc5c(cnn5Cc5cccc(F)c5)c4)c3c2)o1 [Compound 145, (S)—N-(1-(3-fluorobenzyl)-1H-indazol-5-yl)-6-(5-(1-(methylamino)-2-(methylsulfonyl)ethyl)furan-2-yl)quinazolin-4-amine] | – | – | 8240 | 581 |
| CCN[C@H](CS(C)(=O)=O)c1ccc(-c2ccc3ncnc(Nc4ccc5c(cnn5Cc5cccc(F)c5)c4)c3c2)o1 [Compound 146, (S)—N-(1-(3-fluorobenzyl)-1H-indazol-5-yl)-6-(5-(1-(ethylamino)-2-(methylsulfonyl)ethyl)furan-2-yl)quinazolin-4-amine] | – | – | 5460 | 489 |
| CCCN[C@H](CS(C)(=O)=O)c1ccc(-c2ccc3ncnc(Nc4ccc5c(cnn5Cc5cccc(F)c5)c4)c3c2)o1 [Compound 147, (S)—N-(1-(3-fluorobenzyl)-1H-indazol-5-yl)-6-(5-(1-(propylamino)-2-(methylsulfonyl)ethyl)furan-2-yl)quinazolin-4-amine] | – | – | 8010 | 406 |
| CN(C1CC1)[C@H](CS(C)(=O)=O)c1ccc(-c2ccc3ncnc(Nc4ccc5c(cnn5Cc5cccc(F)c5)c4)c3c2)o1 [Compound 148, (S)—N-(1-(3-fluorobenzyl)-1H-indazol-5-yl)-6-(5-(1-(cyclopropyl-methyl-amino)-2-(methylsulfonyl)ethyl)furan-2-yl)quinazolin-4-amine] | – | – | 7000 | 442 |
| CN(C)[C@H](CS(C)(=O)=O)c1ccc(-c2ccc3ncnc(Nc4ccc5c(cnn5Cc5cccc(F)c5)c4)c3c2)o1 [Compound 149, (S)—N-(1-(3-fluorobenzyl)-1H-indazol-5-yl)-6-(5-(1-(N,N-dimethylamino)-2-(methylsulfonyl)ethyl)furan-2-yl)quinazolin-4-amine] | – | – | 7230 | 349 |
| CCN(CC)[C@H](CS(C)(=O)=O)c1ccc(-c2ccc3ncnc(Nc4ccc5c(cnn5Cc5cccc(F)c5)c4)c3c2)o1 [Compound 150] | 6670 | 624 | – | – |
| CCCN(CCC)[C@H](CS(C)(=O)=O)c1ccc(-c2ccc3ncnc(Nc4ccc5c(cnn5Cc5cccc(F)c5)c4)c3c2)o1 [Compound 151] | 6080 | 637 | – | – |
| CCN(C)[C@H](CS(C)(=O)=O)c1ccc(-c2ccc3ncnc(Nc4ccc5c(cnn5Cc5cccc(F)c5)c4)c3c2)o1 [Compound 152] | 6540 | 601 | – | – |
| C=CCN[C@H](CS(C)(=O)=O)c1ccc(-c2ccc3ncnc(Nc4ccc5c(cnn5Cc5cccc(F)c5)c4)c3c2)o1 [Compound 153, (S)—N-(1-(3-fluorobenzyl)-1H-indazol-5-yl)-6-(5-(1-(allyl-amino)-2-(methylsulfonyl)ethyl)furan-2-yl)quinazolin-4-amine] | – | – | 5870 | 857 |
| C#CCN[C@H](CS(C)(=O)=O)c1ccc(-c2ccc3ncnc(Nc4ccc5c(cnn5Cc5cccc(F)c5)c4)c3c2)o1 [Compound 154, (S)—N-(1-(3-fluorobenzyl)-1H-indazol-5-yl)-6-(5-(1-(propargyl-amino)-2-(methylsulfonyl)ethyl)furan-2-yl)quinazolin-4-amine] | – | – | 4900 | 624 |
| CON[C@H](CS(C)(=O)=O)c1ccc(-c2ccc3ncnc(Nc4ccc5c(cnn5Cc5cccc(F)c5)c4)c3c2)o1 [Compound 155] | 8590 | 480 | – | – |
